Assay results published in paper PMC6522510 (Nature Communications, 2019).

Columns and labels:
Set-up in all cases: species or system AML cell lines (8); Primary HTS, single concentration about 10 uM, Cell Titer Glo viability; log10 luminescence, per cent inhibition relative to cycloheximide control
Conditions in all cases: 72 h, relative to cycloheximide control, log10 luminescence; inhibitor
M07e = tested on: M07e
MOLM-13 = tested on: MOLM-13
MV4-11 = tested on: MV4-11
U937 = tested on: U937
CMS = tested on: CMS
CHRF288-11 = tested on: CHRF288-11
CMK = tested on: CMK
ML-2 = tested on: ML-2

Structure (SMILES)	M07e %inh (M07e) [%]	MOLM-13 %inh (MOLM-13) [%]	MV4-11 %inh (MV4-11) [%]	U937 %inh (U937) [%]	CMS %inh (CMS) [%]	CHRF288-11 %inh (CHRF288-11) [%]	CMK %inh (CMK) [%]	ML-2 %inh (ML-2) [%]
O=S(=O)(CCNCc1ccc(-c2ccc3ncnc(Nc4ccc(OCc5cccc(F)c5)c(Cl)c4)c3c2)o1)c1ccccc1 [SJ000573010-1, U15277/78/1]	-3.622	2.488	-1.134	1.807	-1.695	-1.699	1.889	0.08634
CS(=O)(=O)CCNCc1ccc(-c2ccc3ncnc(Nc4ccc(OCc5ccccc5)c(Br)c4)c3c2)o1 [SJ000573011-1, U14801/114/2]	-3.258	0.135	1.235	-1.717	2.264	1.432	0.7024	-0.7119
Fc1ccc(-c2ncn(C3CCNCC3)c2-c2ccnc(Oc3ccc(F)c(F)c3)n2)cc1 [SJ000573012-1, JB27026-232B1]	-2.095	-3.394	1.825	-1.918	1.648	-0.6747	0.6183	1.308
Fc1ccc(-c2ncn(C3CCNCC3)c2-c2ccnc(Oc3ccccc3)n2)cc1 [SJ000573013-1, JB19236-077B1]	0.9358	-2.821	0.9088	2.101	-0.5294	6.56	-1.927	1.79
C[C@@H](Oc1cc(-n2cnc3ccc(OC4CCN(C)CC4)cc32)sc1C(N)=O)c1ccccc1Cl [SJ000573015-1, U20958/186/1]	91.2	100.2	65.04	71	56.77	79.26	85.68	28.2
CS(=O)(=O)CCN(CC#N)Cc1ccc(-c2ccc3ncnc(Nc4ccc(OCc5cccc(F)c5)c(Cl)c4)c3c2)o1 [SJ000573016-1, U15872/6/1]	3.973	0.2014	-0.4968	1.155	3.038	-2.462	0.1592	-0.1489
COc1cc2ncn(-c3cc(OCc4ccccc4C(F)(F)F)c(C(N)=O)s3)c2cc1OC [SJ000573017-1, U19479/72/1]	75.37	75.9	11.51	52.87	10.85	5.686	61.69	50.35
COc1ccc2ncn(-c3cc(O[C@H](C)c4ccccc4Cl)c(C(N)=O)s3)c2c1 [SJ000573018-1, U20814/197/10]	105.8	77.34	78.2	80.58	74.69	95.84	106.8	40.68
NC(=O)c1cc(-c2ccc(F)cc2)cc(-c2ccncc2)c1N [SJ000573019-1, R12070/183/1]	-3.642	2.771	-5.414	-0.8611	-0.425	0.09024	2.8	-4.125
CS(=O)(=O)CCNCc1coc(-c2ccc3ncnc(Nc4ccc(OCc5ccccc5)cc4)c3c2)c1 [SJ000573020-1, U12271/135/2]	-2.581	31.36	24.68	2.077	-1.503	-1.974	4.823	1.422
NC(=O)Cc1ccccc1Oc1nccc(-c2c(-c3ccc(F)cc3)ncn2C2CCNCC2)n1 [SJ000573021-1, JB27143-130B1]	-2.017	-3.279	-0.3846	-0.5311	1.576	2.665	-8.193	0.1798
CS(=O)(=O)CCNCc1ccoc1-c1ccc2ncnc(Nc3ccc(OCc4ccccc4)cc3)c2c1 [SJ000573022-1, U12271/142/3]	4.198	26.01	13.73	-0.4603	-1.789	3.335	1.228	0.6017
COc1cc2ncn(-c3cc(OCc4ccccc4Cl)c(C(N)=O)s3)c2cc1OC [SJ000573023-1, U22436/143/1]	101	81.3	72.02	71.67	71.19	71.75	98.04	36.08
CCS(=O)(=O)c1ccc(OC)c(Nc2ncc(-c3cccc(C(C)=O)c3)o2)c1 [SJ000573024-1, U16419/42/1]	133.2	78.46	66.42	71.28	-0.9431	-0.8609	1.586	-2.018
COc1cc2ncn(-c3cc(OCCc4ccccc4)c(C(N)=O)s3)c2cc1OC [SJ000573025-1, U19479/153/8]	0.3839	2.298	2.077	0.712	-1.969	0.4642	4.39	0.6694
N#Cc1c(NC(=O)c2cccc3ccccc23)sc2c1CCCC2 [SJ000573026-1, R15619/70/1 | TCS JNK 5A | JNK INHIBITOR IX | | TCS JNK 5A]	97.41	87.75	80.18	83.53	100.8	42.98	122.9	58.68
COc1cccc(-n2ncc3c(N/N=C/c4ccc(S(C)(=O)=O)cc4)ncnc32)c1 [SJ000573027-1, U18028/92/1]	-5.045	-3.446	1.569	-1.909	0.1842	-7.861	-4.499	-4.304
COc1cccc(Nc2nccc(-c3cnn4ncccc34)n2)c1 [SJ000573028-1, U18020/75/1]	96.77	96.5	76.07	74.45	93.88	61.5	112.7	57.03
COC(=O)Nc1nc2ccc(Sc3ccc(NC(=O)Nc4cc(C(F)(F)F)ccc4F)cc3)cc2[nH]1 [SJ000573029-1, T229/195/1]	3.372	17.62	2.362	5.795	-0.01293	10.2	38.89	2.621
NC(=O)c1cccc(Nc2nccc(Nc3cccc4[nH]ncc34)n2)c1 [SJ000573030-1, JA205171-001A6]	5.4	22.42	23.15	-0.8011	1.464	16.39	-1.424	2.579
Cc1cccc(Nc2ncc(-c3ccccc3)o2)c1 [SJ000573031-1, U21834/25/1]	2.356	78.79	58.38	0.1537	1.47	1.444	4.152	2.781
NC(=O)c1sc(-n2cnc3ccccc32)cc1OCc1ccccc1Br [SJ000573032-1, U22538/78/1]	3.083	1.858	0.1879	1.777	2.746	-0.9565	4.627	42.25
